Results reported in patent US8232101B2, “Identification of antigenic peptides from multiple myeloma cells” (Janssen Pharmaceutica N.V., priority 2009, dated 2012).

Tests used:
[1] = tested on: T2 cells loaded with individual peptides; assay: 51Cr Release Assay for activity of CTL generated with peptide-loaded Drosophila aAPC; format: cell-based, human; settings: for CTL Activities Weak: number of donors that elicited Weak activity over total number of donors; for CTL Activities Weak / CTL Activities Strong / CTL Activities None: T2 targets loaded with individual peptide; for Induction of CTL in two normal donors: Donor 1 and Donor 2, FIG. 3 and FIG. 4; for CTL Activities Strong: number of donors that elicited Strong activity over total number of donors; for CTL Activities None: number of donors that elicited no activity over total number of donors
Protocol: Drosophila aAPC were generated from Schneider S2 cells (S2 cells), which were originally established in 1969 from several hundred Oregon-R (wild type) Drosophila melanogaster (Oregon-R) embryos (American Type Culture Collection (ATCC) CRL-1963) according to published procedures (Schneider, J. Embryol. Exp. Morph. 1972 Vol 27, pp. 353-365), and deposited in the ATCC(CRL10974). S2 cells are grown in commercial Schneider's Drosophila medium supplemented with 10% heat-inactivated fetal bovine serum. In order to generate aAPCs, human complementary DNAs (cDNAs) for HLA-A2.1, B7.1, LFA-3, ICAM-1 and CD70, were individually inserted into the pRmHa-3 vector and S2 cells were transfected using the calcium phosphate precipitation method with a mixture of HLA-A2.1, B7.1, LFA-3, ICAM-1 and CD70 plasmid DNAs (for aAPC clone 1120) and the phshneo plasmid. (see U.S. Pat. No. 6,225,042 regarding construction and use of pRMHa plasmid vectors). The human cDNAs were prepared using standard techniques by reverse transcription-PCR using primers derived from the published sequences for HLA-A2.1 from K562 cells, B7.1 from K562 cells, LFA-3 from HL60 cells, ICAM-1 from K562 cells, and CD70 from HLA-A2.1+LCL cells. K562 cells are a human erythroleukemic cell line, HL60 cells are a promyelocytic leukemia human cell line, and HLA-A2.1+LCL cells are an Epstein-Barr virus (EBV)-transformed lymphoblastoid cell line (LCL). Stably transfected cells were selected by culturing in Schneider's medium containing geneticin. Prior to scale up of the cells, expression of the transfected genes is induced by the addition of CuSO4. The level of expression is assessed by flow cytometry using anti-HLA-A2.1, anti-B7.1, anti-LFA-3, anti-ICAM-1 and CD70 antibodies. For efficient in vitro activation of the CD8+ lymphocytes, greater than 30% of the Drosophila cells must express the HLA-A2.1 molecule. The Drosophila cells regularly express each of the molecules at levels between 70-90%. Drosophila aAPC were washed and then incubated at RT for 4 hours with 10 μM of different combinations of mixed peptides or individual peptides (See e.g. U.S. Pat. Nos. 6,225,042, 6,355,479, 6,362,001 and 6,790,662; U.S. Patent Application Publication Nos. 2009/0017000 and 2009/0004142; and International Publication No. WO2007/103009). Purified human CD8+ T cells from HLA-A2 positive donors were then incubated with peptide-loaded Drosophila APC at 37° C., 5% CO2, for 5 days. Human IL-2 (20 U/ml, R&D Systems) and IL-7 (30 U/ml, R&D Systems) were added at day 5 and the activated CD8+ T cells (CTL) were re-stimulated twice, at day 7 and day 15, with non-CD8 adherent cells in a total peripheral blood mononuclear cell (PBMC) preparation from the same donor in the presence of peptides.
A number of different CTL were generated using CD8+ T cells from different donors and different combinations of mixed peptides, including combinations that contained only one peptide. For example, 24 selected peptides were mixed or used individually to create different combinations of peptide mixtures (PM) or individual peptides (P5 and P14) and produce peptide-loaded Drosophila APC. The resulting peptide-loaded Drosophila APC were incubated with CD8+ T cells from 2 different donors (Donor 1 and Donor 2) to produce 11 different batches of CTL (Donor 1: PM1, PM2, PM3, PM4, and P14; Donor 2: PM1, PM2, PM3, PM4, P5, and P14) (Table 3).
CTL (Effector) activity was measured with a standard chromium (^51Cr) release assay, with T2 cells (Target) loaded with individual peptides and also with a number of tumor cell lines as target cells (Brunner et al., Immunology. 1968 February; 14(2):181-96). The highest Effector (E) Target (T) ratio (E/T) was 50:1, with 1:5 serial dilutions of CTL (Effector) used to produce a dose response. Before the assay, Target cells (T2 cells at 3×10^6 cells/100 ul in 1×PBS with 4% FCS) were labeled by adding 100 ul of ^51Cr (Perkin Elmer) and incubating at 37° C. for 1 hour. […]

[2] = target: T1, HLA-A2 molecules in T2 cells (Homo sapiens, UniProt P04439, D140Y/D185E/D98H/E176V/E277Q/G131W/G231S/I119V/I121R/I166T/I218V/L300P/L318F/N151K/N90K/P208A/P217A/Q86G/Q94H/R138H/R169H/T345S); assay: HLA-A2 Stabilization Assay (peptide binding, T2 cells, flow cytometry); design: key: Strong (S); Median (M); Weak (W); None (N)
T1 construct: HLA-A2 molecules that are synthesized in a transporter associated with antigen processing (TAP)-deficient cell line, T2; host or cells: T2 cells (TAP-deficient human cell line)
Source text: The assay for peptide binding to class I major histocompatibility complex (MHC/HLA-A2) molecules is based on the ability of peptides to stabilize MHC class I, HLA-A2 molecules that are synthesized in a transporter associated with antigen processing (TAP)-deficient cell line, T2 (ATCC® Number: CRL-1992). The extent of stabilization of MHC class I molecules is directly related to the binding affinity of the added peptides (Townsend et al., Cell. 1990 Jul. 27; 62(2):285-95; Andersen et al., Tissue Antigens. 1999 August; 54(2):185-90).
For the assay, T2 cells were plated in 96-well V-bottom plates, 100 ul/well RPMI media, at a density of 1×10^6 cells/ml, with final peptide concentrations of 200 uM, 20 uM, 2 uM, 200 nM, 20 nM, 2 nM, and no peptide as negative control. The cells with peptides were incubated for 18 hours at 26° C., 5% CO2. After 18 hours, the plates were transferred to 37° C., 5% CO2 and incubated for an additional 3 hours. The cells in plate were washed once with FACS buffer (PBS, 2.5% FCS, 1% NaN3) and then stained by adding 1 ul/well FITC-labeled mouse anti-human HLA-A2 antibody (BD Pharmingen, Cat. No. 551285), 1 ul/well PI, and then incubating at 4° C. for 30 minutes. After staining, cells were resuspended in 200 ul of FACS buffer and transferred from 96-well plates to racks of 96 microtubes. Samples were run on a FACScan flow cytometer and the data were analysed by using CellQuest software.
A peptide of Hepatitis B Core protein (HBC) was used as a positive control. The Hepatitis B Core peptide is a potent HLA-A2.1 epitope and consists of residue numbers 18-27 of the core sequence, amino acids […] (SEQ ID NO:73) (Zhang et al. Immunology. 2007, 121(1):105-12).

[3] = truncated versions of P3, P13, P14

Substance | HLA-A2 Binding [2, 3] | CTL Activities None [1] | also measured
RSLFLLYAL (listed as Homo sapiens) [Peptide P4] | – | – | CTL Activities Weak [1]: 1/1
DLPGMTK (listed as Homo sapiens) [Peptide P13-15] | N | – | –
LLGPRLVLA (listed as Homo sapiens) [Peptide P1] | – | 6/10 | Induction of CTL in two normal donors [1]: induced CTL; CTL Activities Strong [1]: 2/10; CTL Activities Weak [1]: 2/10
KNPVLLKIL (listed as Homo sapiens) [Peptide P7] | – | 2/3 | CTL Activities Weak [1]: 1/3
VDLPGMTKV (listed as Homo sapiens) [Peptide P13-2] | N | – | –
TLVDLPG (listed as Homo sapiens) [Peptide P13-9] | N | – | –
LLIDDKGTIKL (listed as Homo sapiens) [Peptide P20] | – | 2/3 | CTL Activities Weak [1]: 1/3
LLNMPPAHLK (listed as Homo sapiens) [Peptide P11] | – | – | CTL Activities Strong [1]: 1/2; CTL Activities Weak [1]: 1/2
DLPGITRV (listed as Homo sapiens) [Peptide P14-3] | N | – | –
TLIDLPGIT (listed as Homo sapiens) [Peptide P14-7] | N | – | –
NLLPKLHVV (listed as Homo sapiens) [Peptide P9] | – | 2/2 | –
LLYQGPHNTL (listed as Homo sapiens) [Peptide P12] | – | 2/3 | CTL Activities Weak [1]: 1/3
KLLEPVLLL (listed as Homo sapiens) [Peptide P6] | – | 2/3 | CTL Activities Weak [1]: 1/3
TLIDLPG (listed as Homo sapiens) [Peptide P14-9] | N | – | –
IDLPGITRV (listed as Homo sapiens) [Peptide P14-2] | N | – | –
SLVLNL (listed as Homo sapiens) [Peptide P3-6] | N | – | –
DLPGMTKV (listed as Homo sapiens) [Peptide P13-3] | N | – | –
LNLLEL (listed as Homo sapiens) [Peptide P3-3] | N | – | –
TLIDLPGI (listed as Homo sapiens) [Peptide P14-8] | N | – | –
VDLPGMTK (listed as Homo sapiens) [Peptide P13-12] | N | – | –
TLIDLP (listed as Homo sapiens) [Peptide P14-10] | N | – | –
DLPGITR (listed as Homo sapiens) [Peptide P14-17] | N | – | –

Substance | HLA-A2 Binding [2, 3] | CTL Activities None [1] | also measured
LPGITRV (listed as Homo sapiens) [Peptide P14-4] | N | – | –
YLLPAIVHI (listed as Homo sapiens) [Peptide P8] | – | 3/3 | –
TLVDLPGMTK (listed as Homo sapiens) [Peptide P13-6] | N | – | –
PGITRV (listed as Homo sapiens) [Peptide P14-5] | N | – | –
VLIPKLPQL (listed as Homo sapiens) [Peptide P5] | – | 2/3 | Induction of CTL in two normal donors [1]: induced CTL; CTL Activities Weak [1]: 1/3
SLVLNLL (listed as Homo sapiens) [Peptide P3-5] | N | – | –
FLLPHPGLQV (listed as Homo sapiens) [Peptide P10] | – | 1/2 | Induction of CTL in two normal donors [1]: induced CTL; CTL Activities Strong [1]: 1/2
TLVDLPGMT (listed as Homo sapiens) [Peptide P13-7] | N | – | –
LPGMTKV (listed as Homo sapiens) [Peptide P13-4] | N | – | –
LLLDVPTAAVQA (listed as Homo sapiens) [Peptide P21] | – | 2/3 | CTL Activities Strong [1]: 1/3
LVDLPGMTKV (listed as Homo sapiens) [Peptide P13-1] | N | – | –
SLVLNLLE (listed as Homo sapiens) [Peptide P3-4] | N | – | –
FMLQTYGQQL (listed as Homo sapiens) [Peptide P14-18] | – | – | HLA-A2 Binding ([2]; computer predicted peptides): N
PGMTKV (listed as Homo sapiens) [Peptide P13-5] | N | – | –
LIDLPGITRV (listed as Homo sapiens) [Peptide P14-1] | N | – | –
LIDLPGIT (listed as Homo sapiens) [Peptide P14-13] | N | – | –
HSLDNSLSILR (listed as Homo sapiens) [Peptide P16] | – | 2/2 | –
LLLDVAYGAVQA (listed as Homo sapiens) [Peptide P22] | – | 1/2 | CTL Activities Strong [1]: 1/2
FLASESLLKGAL (listed as Homo sapiens) [Peptide P23] | – | 1/2 | Induction of CTL in two normal donors [1]: induced CTL; CTL Activities Strong [1]: 1/2
LSLDSSLSSLL (listed as Homo sapiens) [Peptide P17] | – | 2/10 | Induction of CTL in two normal donors [1]: induced CTL; CTL Activities Strong [1]: 4/10; CTL Activities Weak [1]: 4/10
ALNEEAGRLLL (listed as Homo sapiens) [Peptide P15] | – | 1/9 | Induction of CTL in two normal donors [1]: induced CTL; CTL Activities Strong [1]: 3/9; CTL Activities Weak [1]: 5/9
